Publication PMC6792352, “Limited Chemical Structural Diversity Found to Modulate Thyroid Hormone Receptor in the Tox21 Chemical Library” (Environmental Health Perspectives, 2019)
Structures can show the parent of a compound that is named as a salt.

test: in vitro; settings: rat, gh3-tre-luc cells, AC50 (uM) modified / 1000

Row | SMILES | CC50 at 24 h [µM]
1 | C[C@@H]1O[C@@H](O[C@H]2C[C@@H](O)[C@]3(CO)[C@H]4[C@H](O)C[C@]5(C)[C@@H](C6=CC(=O)OC6)CC[C@]5(O)[C@@H]4CC[C@]3(O)C2)[C@H](O)[C@H](O)[C@H]1O [Ouabain] | > 80
2 | COC(=O)CC(=O)C(C)(C)C [Methyl pivaloylacetate] | > 90
3 | c1ccc2c(c1)CCc1ccccc1N2 [10,11-Dihydro-5H-dibenz[b,f]azepine] | > 90
4 | O=C(COc1ccc(Cl)cc1)N1CCN(Cc2ccc3c(c2)OCO3)CC1 [Fipexide hydrochloride] | 66.7
5 | CCN1/C(=C/C=C/c2sc3ccccc3[n+]2CC)Sc2ccccc21 [3,3'-Diethylthiacarbocyanine iodide] | 1.67
6 | O=S(=O)(O)c1cc(I)c(O)c2ncccc12 [Loretin] | > 50
7 | CC1(C)O[C@H]2CC(=O)OC[C@]23[C@H]2CC[C@@]4(C)[C@H](c5ccoc5)OC(=O)[C@H]5O[C@]54[C@]2(C)C(=O)C[C@@H]13 [Limoni] | > 50
8 | CCN1C[C@]2(COC)[C@H](O)C[C@H](OC)[C@]34C1[C@H]([C@H](OC)[C@H]23)[C@]1(OC(C)=O)[C@H]2[C@@H](OC(=O)c3ccccc3)[C@](O)(C[C@H]24)[C@@H](OC)[C@@H]1O [Aconitine] | > 50
9 | O=Cc1ccc(C(=O)O)cc1 [4-Carboxybenzaldehyde] | > 90
10 | C[C@H]1C[C@@H](O)CC(C)(C)C1 (stereo in doubt) [(1R,5R)-3,3,5-trimethylcyclohexanol] | > 90
11 | N=C(N)NCC1COC2(CCCCC2)O1 (stereo not drawn) [Guanadrel sulfate] | > 20
12 | NC1CCN(c2nc3c(cc2F)c(=O)c(C(=O)O)cn3-c2ccc(F)cc2F)C1 (stereo not drawn) [Tosufloxacin toluenesulfonic acid] | > 50
13 | CCCCc1ccccc1 [Butylbenzene] | > 90
14 | C=C[Si](OC(=C)C)(OC(=C)C)OC(=C)C [Ethenyl[tris(prop-1-en-2-yloxy)]silane] | > 90
15 | O=C1OC(=O)C2CC=CCC12 (stereo not drawn) [Tetrahydrophthalic anhydride] | > 90
16 | Cc1c(C(=O)c2c[nH]n(C)c2=O)ccc(S(C)(=O)=O)c1C1=NOCC1 [Topramezone] | > 40
17 | CC1(C)O[C@@H]2C[C@H]3[C@@H]4CCC5=CC(=O)CC[C@]5(C)[C@@]4(F)[C@@H](O)C[C@]3(C)[C@]2(C(=O)CCl)O1 [Halcinonide] | > 20
18 | CCOC(=O)COc1ccc2c(C)c(CCN(CC)CC)c(=O)oc2c1Cl [Cloricromen hydrochloride] | 31.2
19 | CCOC(=O)CC(=O)C(=O)OCC [Sodium diethyl oxaloacetate] | > 90
20 | COC(OC)(C(=O)c1ccccc1)c1ccccc1 [2,2-Dimethoxy-1,2-diphenylethanone] | > 90
21 | CCN1CCC[C@H]1CNC(=O)c1c(O)c(Cl)cc(Cl)c1OC [Raclopride] | > 50
22 | ClCc1cccnc1 [3-(Chloromethyl)pyridine hydrochloride] | > 90
23 | COc1cc(C(=O)NC2CCN(C)CC2)ccc1Nc1ncc2c(n1)N(C1CCCC1)CC(F)(F)C(=O)N2C [PharmaGSID_48511] | 1.83
24 | CC(=O)OCc1ccco1 [Furfuryl acetate] | > 90
25 | CC[C@H]1CC[C@H](NCc2cc3c(cc2OC)[C@H]2C[C@H]2C(=O)N3C)[C@H](c2ccccc2)N1 [CP-728663] | 35.3
26 | CC(C)c1cccc(C(C)C)c1NC(=O)NS(=O)(=O)c1cc(C(C)(C)O)co1 [CP-465394] | > 90

Row | SMILES | CC50 at 24 h [µM]
27 | CCCC/C=C/CCCCO [(E)-5-Decen-1-ol] | > 90
28 | Cc1ccc(C(=O)C(C)CN2CCCCC2)cc1 (stereo not drawn) [Tolperisone hydrochloride] | > 50
29 | C=C[Si](OCCOC)(OCCOC)OCCOC | > 90
30 | O=C1c2cccc(O)c2C(=O)c2c(O)cccc21 [Danthron] | > 90
31 | CCCCC(=O)O[C@]1(C(=O)CO)[C@@H](C)C[C@H]2[C@@H]3CCC4=CC(=O)C=C[C@]4(C)[C@@]3(F)[C@@H](O)C[C@@]21C [Betamethasone valerate] | 77.9
32 | Cc1occc(=O)c1OC(=O)C(C)C [Maltol isobutyrate] | > 90
33 | Cc1ccccc1CCl [1-(Chloromethyl)-2-methylbenzene] | > 90
34 | O=c1[nH]c2cc(C(F)(F)F)c(N3CCOCC3)cc2n(CP(=O)(O)O)c1=O [Fanapanel] | > 50
35 | Cc1ccc(-c2ncc(Cl)cc2-c2ccc(S(C)(=O)=O)cc2)cn1 [Etoricoxib] | > 50
36 | On1ccccc1=S [Sodium (2-pyridylthio)-N-oxide] | 1.83
37 | Cc1ccc(S(=O)(=O)NC(=O)NC2CCCC2)cc1 [Tolpentamide] | > 50
38 | CCCc1ccc(O)cc1 [4-Propylphenol] | > 90
39 | Cc1ccco1 [2-Methylfuran] | > 90
40 | C/C=C\C/C=C/CCCCCCCCOC(C)=O [(9E,12Z)-9,12-Tetradecadien-1-ol acetate] | > 90
41 | C=CC(C)CCCC(C)(C)O (stereo not drawn) [1,1,5-Trimethyl-6-heptenol] | > 90
42 | C#CCOC(C(=O)OCCN(C)C)(c1ccccc1)c1ccccc1 [Pargeverine hydrochloride] | > 50
43 | COC(=O)CC(C)=O [Methyl acetoacetate] | > 90
44 | CCCCOCCOCCSC#N [2-(2-Butoxyethoxy)ethyl thiocyanate] | > 100
45 | NC(=O)[C@@H]1C[C@]2(NC(=O)NC2=O)c2cc(F)ccc2O1 [Fidarestat] | > 50
46 | Oc1ccc2c(c1)Cc1ccccc1-2 [2-Hydroxyfluorene] | 77.9
47 | CC(C)(C)NCC(O)COc1ccc(NC(=O)NC2CCCCC2)cc1 (stereo not drawn) [Talinolol] | > 50
48 | NC(CO)C(=O)NNCc1ccc(O)c(O)c1O (stereo not drawn) [Benserazide hydrochloride] | > 50
49 | CC(=O)OC1C2(C)CCC(C2)C1(C)C (stereo not drawn) [Fenchyl acetate] | > 90
50 | C=CC(C)(CCC=C(C)C)OC(=O)/C=C/c1ccccc1 (stereo not drawn) [Linalyl cinnamate] | > 90
51 | O=C(O)CNC(=O)CNC(=O)CNC(=O)CSC(=O)c1ccccc1 [Betiatide] | > 50
52 | Oc1ccc(Cl)cc1C1CCCC1 [4-Chloro-2-cyclopentylphenol] | 55.3

Row | SMILES | CC50 at 24 h [µM]
53 | O=C(O)c1ccc2c(c1)C(=O)OC2=O [Trimellitic anhydride] | > 90
54 | Nc1ncnc2nc[nH]c12 [Adenine] | > 90
55 | CC(C)CCCC(=O)O [5-Methylhexanoic acid] | > 90
56 | CC(C)c1ccc2c(c1)CC[C@H]1[C@](C)(CN)CCC[C@]21C [Dehydroabietylamine acetate] | 10.1
57 | CN1CCC(=C2c3ccccc3CCc3cccnc32)CC1 [Azatadine] | 47.7
58 | O=C[C@H](O)[C@@H](O)[C@H](O[C@H]1O[C@H](CO)[C@@H](O[C@H]2O[C@H](CO)[C@@H](O)[C@H](O)[C@H]2O)[C@H](O)[C@H]1O)[C@H](O)CO [Maltotriose] | > 50
59 | NNC(=O)CCCCC(=O)NN [Hexanedihydrazide] | > 90
60 | O=C(O)CCc1nc(-c2ccccc2)c(-c2ccccc2)o1 [Oxaprozin] | > 50
61 | CCC(N)(CO)CO [2-Amino-2-ethyl-1,3-propanediol] | > 90
62 | CC(C)(C)NCC(O)c1ccccc1Cl (stereo not drawn) [Tulobuterol hydrochloride] | > 50
63 | NC(=O)NNC(N)=O [Biurea] | > 90
64 | O=C(O)c1cccc([N+](=O)[O-])c1 [3-Nitrobenzoic acid] | > 90
65 | Clc1cccc(C(c2ccc3[nH]cnc3c2)n2ccnc2)c1 (stereo not drawn) [Liarozole hydrochloride] | > 50
66 | C/C=C/c1ccc(OC)cc1 [Anethole] | > 90
67 | O=C(Nc1cccc([N+](=O)[O-])c1)c1cc2ccccc2cc1O [3-Hydroxy-N-(3-nitrophenyl)naphthalene-2-carboxamide] | 1.77
68 | CCOC(=O)OC(C)OC(=O)[C@@H]1N2C(=O)[C@@H](NC(=O)[C@H](N)c3ccccc3)[C@H]2SC1(C)C (stereo partly drawn) [Bacampicillin hydrochloride] | > 20
69 | C1CN2CCN1CC2 [1,4-Diazabicyclo[2.2.2]octane] | > 100
70 | CC[Si](OC(C)=O)(OC(C)=O)OC(C)=O [Ethyltriacetoxysilane] | > 90
71 | CCCCC(CC)C(=O)OCCOCCOCCOC(=O)C(CC)CCCC (stereo not drawn) [Triethylene glycol bis(2-ethylhexanoate)] | > 90
72 | [H]/N=C(/N)N[C@H]1[C@H](O)[C@@H](O)[C@H](O[C@@H]2O[C@@H](C)[C@](O)(C=O)[C@H]2O[C@@H]2O[C@@H](CO)[C@H](O)[C@@H](O)[C@@H]2NC)[C@@H](N/C(N)=N\[H])[C@@H]1O [Streptomycin sulfate (2:3)] | > 50
73 | CC(C)(C#N)Nc1nc(Cl)nc(NC2CC2)n1 [Procyazine] | > 90
74 | CCCCCCCC/C=C\CCCCCCCC(N)=O [(9Z)-Octadec-9-enamide] | > 90
75 | C#CCOc1ccc2c(C)cc(=O)oc2c1 [Giparmen] | > 50
76 | N#CC1(O)CCCCC1 [Cyclohexanone cyanohydrin] | > 90

same assay, conditions: rat, gh3-tre-luc cells, AC50 (uM) modified / 1000, Tox21_110001=Tox21_113550; viability, 1 nM T3 present, 24 h

Row | SMILES | CC50 at 24 h [µM]
77 | CC=C(CC)C(=O)NC(N)=O [1-(2-Ethylcrotonoyl)urea] | > 50

same assay, conditions: rat, gh3-tre-luc cells, AC50 (uM) modified / 1000, Tox21_110001=Tox21_200823; viability, 1 nM T3 present, 24 h

Row | SMILES | CC50 at 24 h [µM]
78 | Clc1cccc2ccccc12 [1-Chloronaphthalene] | > 90

same assay, conditions: rat, gh3-tre-luc cells, AC50 (uM) modified / 1000, Tox21_110001=Tox21_201657; viability, 1 nM T3 present, 24 h

Row | SMILES | CC50 at 24 h [µM]
79 | COC(=O)c1ccccc1N [Methyl 2-aminobenzoate] | > 90

same assay, conditions: rat, gh3-tre-luc cells, AC50 (uM) modified / 1000, Tox21_110001=Tox21_300806; viability, 1 nM T3 present, 24 h

Row | SMILES | CC50 at 24 h [µM]
80 | CNC(=O)/C=C(\C)OP(=O)(OC)OC [Monocrotophos] | > 90

same assay, conditions: rat, gh3-tre-luc cells, AC50 (uM) modified / 1000, Tox21_110001=Tox21_301581; viability, 1 nM T3 present, 24 h

Row | SMILES | CC50 at 24 h [µM]
81 | O=S1OC[C@@H]2[C@H](CO1)[C@]1(Cl)C(Cl)=C(Cl)[C@@]2(Cl)C1(Cl)Cl (stereo partly drawn) [Endosulfan I] | 69.4
